The record followed here is article PMC10591299, “Targeting SHP2 with an Active Site Inhibitor Blocks Signaling and Breast Cancer Cell Phenotypes” (ACS Bio & Med Chem Au, 2023).

Usually IC50 stands for the concentration that gives 50% inhibition.

One assay deals with T1, PTP1B (Homo sapiens, UniProt P18031).
T1 construct: The GST fusion PTP domains of SHP1 and PTP1B were expressed and purified in a fashion similar to that of SHP2; GST; made in house
T1 sequence (P18031 3-277 limits assumed): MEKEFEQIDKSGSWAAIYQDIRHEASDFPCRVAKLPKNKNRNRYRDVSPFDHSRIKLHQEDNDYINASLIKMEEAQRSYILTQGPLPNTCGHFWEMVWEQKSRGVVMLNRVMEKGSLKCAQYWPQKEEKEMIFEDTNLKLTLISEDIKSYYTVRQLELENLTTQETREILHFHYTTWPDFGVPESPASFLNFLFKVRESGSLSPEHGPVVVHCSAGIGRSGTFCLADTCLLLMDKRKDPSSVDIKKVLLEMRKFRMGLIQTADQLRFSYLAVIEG
The experiment in a line: PTPase assay, GST-fusion PTP domain of PTP1B, DiFMUP substrate. The assay is classed as biochemical. How it is done: After completion of synthesis, both CNBCA and CNBBA were purified on silica gel, and purity was determined by HPLC. The purified compounds were then tested for their effect on the SHP2 enzyme activity and on the activity of the selected control PTPs (SHP1 and PTP1B) by the phosphotyrosyl phosphatase (PTPase) assay as described previously.[30],[31] First, the GST fusion of the PTP domains of SHP2, SHP1, and PTP1B were produced and purified as reported by us previously.[32] The reactions were performed in a buffer containing 10 mM Tris-HCl (pH 7.2), 100 mM NaCl, 1 mM EDTA, 1 mM dithiothreitol (DTT), and 0.01% Tween-20. […] The complete mixture was incubated at 37 °C for 20 min, and fluorescence intensity was measured by the Synergy 4 plate reader at the excitation and emission wavelengths of 360 and 460 nm, respectively. The half inhibitory concentration (IC50) value of each compound was calculated and plotted using Graphpad Prism software. […]
We used the PTPase assay described previously[30],[31] to evaluate the effect of the newly synthesized compounds on the enzymatic activity of SHP2, SHP1, and PTP1B. […] The mixtures were incubated at 37 °C for 20 min and transferred to 96 well plates, and the fluorescence intensity was measured by a Synergy 4 plate reader at the excitation and emission wavelengths of 360 and 460 nm, respectively. […]

For assay [1], the system named is MDA-MB468 cells. The experiment in a line: Colony formation in soft agar, MDA-MB468. The assay is classed as cell-based. As to conditions: MDA-MB468, 500 nM, 10 days, versus vehicle. How it is done:
(§1) Since SHP2 is essential for the growth and transformation of BC cells,[8],[9],[11] we determined the effect of SHP2 inhibition with CNBCA in 2D and 3D culture systems. For the effect on cell growth, BC cells (BT474 and MDA-MB468) were seeded in 2D culture and treated with a single concentration of CNBCA (500 nM), the concentration that provided a 50% inhibition of SHP2 mediated signaling in BT474 cells. Images were collected at the start and every 24 h for a total of 72 h (3 days). […] For effect on anchorage independent growth, approximately 10^6 cells were seeded in soft agar as described previously,[24] and treated with CNBCA at 500 nM concentration for 10 days with refeeding and adjustment of compound concentration. […] Finally, the effect of CNBCA on cancer stem cell properties was determined by the suspension assay, in which only cells with stem-like properties only can grow and form mammospheres.[7],[24],[36] Approximately 10^6 cells were seeded in nonadherent 6 cm plates and treated with CNBCA (500 nM) for 10 days with complementation of media and drug concentration.
For colony formation studies, we used the soft agar assay, which keeps cells anchorage independently, allowing determination on the transformation phenotype of cancer cells, including breast cancer cells.[11],[35] For this assay, we first prepared a 5% stock suspension in PBS by boiling it in a microwave. […]

For assay [2], the system named is MDA-MB468 cells. The experiment in a line: Mammosphere formation in suspension culture, MDA-MB468. The assay is classed as cell-based. The settings on record: MDA-MB468, 500 nM, 10 days, versus vehicle. How it is done:
as §1
To further evaluate the anti-breast cancer cell effect of CNBCA, we treated cells seeded in a suspension culture known as the mammosphere assay. In this assay, cells with cancer stem cell properties can grow and form sphere-like cellular aggregates known as mammospheres.[7],[38] […]

SMILES strings stand for the structures.

Consider `CCCCCCCCCOc1ccc(-c2ccc(C(=O)O)cc2)cc1CCCC(=O)O` [CNBCA, 3′-(3-carboxypropyl)-4′-(nonyloxy)-[1,1′-biphenyl]-4-carboxylic acid], for which the half-inhibitory concentration (IC50) at PTP1B (PTP domain, 1 nM enzyme, 10 μM DiFMUP) is 25 µM. The “selectivity ratio PTP1B versus SHP2” value on PTP1B (SHP2 IC50 as reference) is given as 28.73 fold. Besides, the “colony formation in soft agar” value in the assay with MDA-MB468 cells [1] is “fewer and smaller colonies”. Further, the mammosphere formation result in the assay with MDA-MB468 cells [2] was “fewer and smaller mammospheres”.
